# Data from ChEMBL document CHEMBL4725331, “An investigative study of antitumor properties of a novel thiazolo[4,5-d]pyrimidine small molecule revealing superior antitumor activity with CDK1 selectivity and potent pro-apoptotic properties” (Bioorg Med Chem, 2020).
# What was measured:
# SK-MEL-2 = test: Antiproliferative activity against human SK-MEL-2 cells assessed as inhibition of cell growth at 10 uM measured after 48 hrs by SRB assay relative to control; format: functional
# COLO 205 = test: Antiproliferative activity against human COLO 205 cells assessed as inhibition of cell growth at 10 uM measured after 48 hrs by SRB assay relative to control; format: functional
# SF-539 = test: Antiproliferative activity against human SF-539 cells assessed as inhibition of cell growth at 10 uM measured after 48 hrs by SRB assay relative to control; format: functional
# SN12C = test: Antiproliferative activity against human SN12C cells assessed as inhibition of cell growth measured after 48 hrs by SRB assay; format: functional
# HCT-116 [1] = test: Induction of apoptosis in human HCT116 cells assessed as increase in Bax gene expression by RT-PCR analysis relative to untreated control; format: functional
# WI-38 = test: Induction of apoptosis in human WI-38 cells assessed as late apoptotic cells at IC50 incubated for 48 hrs by annexin-V FITC and propidium iodide staining based flow cytometry analysis (reference value: 0.29 %); format: cell-based; details: wi-38, 48 h
# Malme-3M = test: Antiproliferative activity against human Malme-3M cells assessed as inhibition of cell growth measured after 48 hrs by SRB assay; format: functional
# SNB-75 = test: Antiproliferative activity against human SNB-75 cells assessed as inhibition of cell growth measured after 48 hrs by SRB assay; format: functional
# UO-31 = test: Antiproliferative activity against human UO-31 cells assessed as inhibition of cell growth measured after 48 hrs by SRB assay; format: functional
# M14 = test: Antiproliferative activity against human M14 cells assessed as inhibition of cell growth measured after 48 hrs by SRB assay; format: functional
# U-251 = test: Antiproliferative activity against human U-251 cells assessed as inhibition of cell growth measured after 48 hrs by SRB assay; format: functional
# KM12 [2] = test: Antiproliferative activity against human KM12 cells assessed as inhibition of cell growth measured after 48 hrs by SRB assay; format: functional
# NCI-H460 = test: Antiproliferative activity against human NCI-H460 cells assessed as inhibition of cell growth measured after 48 hrs by SRB assay; format: functional
# MDA-MB-435 [3] = test: Antiproliferative activity against human MDA-MB-435 cells assessed as inhibition of cell growth measured after 48 hrs by SRB assay; format: functional
# HOP-62 = test: Antiproliferative activity against human HOP-62 cells assessed as inhibition of cell growth measured after 48 hrs by SRB assay; format: functional
# LOX IMVI = test: Antiproliferative activity against human LOX IMVI cells assessed as inhibition of cell growth measured after 48 hrs by SRB assay; format: functional
# MOLT-4 = test: Antiproliferative activity against human MOLT-4 cells assessed as inhibition of cell growth measured after 48 hrs by SRB assay; format: functional
# OVCAR-3 = test: Antiproliferative activity against human OVCAR-3 cells assessed as inhibition of cell growth measured after 48 hrs by SRB assay; format: functional
# MDA-MB-435 [4] = test: Antiproliferative activity against human MDA-MB-435 cells assessed as inhibition of cell growth at 10 uM measured after 48 hrs by SRB assay relative to control; format: functional
# HCT-116 [5] = test: Induction of apoptosis in human HCT116 cells assessed as up regulation of cytochrome C expression by RT-PCR analysis relative to untreated control; format: functional
# 786-0 = test: Antiproliferative activity against human 786-0 cells assessed as inhibition of cell growth at 10 uM measured after 48 hrs by SRB assay relative to control; format: functional
# HCT-116 [6] = test: Induction of apoptosis in human HCT116 cells assessed as up regulation of caspase-9 expression by RT-PCR analysis relative to untreated control; format: functional
# DU-145 = test: Antiproliferative activity against human DU-145 cells assessed as inhibition of cell growth measured after 48 hrs by SRB assay; format: functional
# TK-10 = test: Antiproliferative activity against human TK-10 cells assessed as inhibition of cell growth measured after 48 hrs by SRB assay; format: functional
# OVCAR-4 = test: Antiproliferative activity against human OVCAR-4 cells assessed as inhibition of cell growth measured after 48 hrs by SRB assay; format: functional
# NCI-H23 = test: Antiproliferative activity against human NCI-H23 cells assessed as inhibition of cell growth at 10 uM measured after 48 hrs by SRB assay relative to control; format: functional
# KM12 [7] = test: Antiproliferative activity against human KM12 cells assessed as inhibition of cell growth at 10 uM measured after 48 hrs by SRB assay relative to control; format: functional
# A549 = test: Antiproliferative activity against human A549 cells assessed as inhibition of cell growth measured after 48 hrs by SRB assay; format: functional
# K562 = test: Antiproliferative activity against human K562 cells assessed as inhibition of cell growth measured after 48 hrs by SRB assay; format: functional
# HCT-116 [8] = test: Cell cycle arrest in human HCT-116 cells assessed as accumulation in S phase phase at IC50 concentration incubated for 48 hrs by propidium iodide staining based flow cytometry analysis (reference value: 41.34 %); format: functional
# UACC-257 = test: Antiproliferative activity against human UACC-257 cells assessed as inhibition of cell growth measured after 48 hrs by SRB assay; format: functional
# SW-620 = test: Antiproliferative activity against human SW-620 cells assessed as inhibition of cell growth at 10 uM measured after 48 hrs by SRB assay relative to control; format: functional
# NCI-H322M = test: Antiproliferative activity against human NCI-H322M cells assessed as inhibition of cell growth at 10 uM measured after 48 hrs by SRB assay relative to control; format: functional
# [9] = read-out: LC50 (the source's name)
compound,measurement,setting,value
COc1ccc(-n2c(=S)sc3c(Cl)nc(C)nc32)c(OC)c1,inhibition at 10 µM,SK-MEL-2,> 50%
same,inhibition at 10 µM,COLO 205,> 50%
same,inhibition at 10 µM,SF-539,> 50%
same,GI50,SN12C,2.82 µM
same,TGI,SN12C,9.12 µM
same,CC50,SN12C; [9],36.3 µM
same,fold change (FC),HCT-116 [1],9.9
same,Activity,WI-38,2.99%
same,GI50,Malme-3M,2.24 µM
same,TGI,Malme-3M,6.17 µM
same,CC50,Malme-3M; [9],27.5 µM
same,GI50,SNB-75,1.95 µM
same,TGI,SNB-75,4.27 µM
same,CC50,SNB-75; [9],9.33 µM
same,GI50,UO-31,3.63 µM
same,TGI,UO-31,15.5 µM
same,CC50,UO-31; [9],39.8 µM
same,GI50,M14,1.86 µM
same,TGI,M14,4.07 µM
same,CC50,M14; [9],8.91 µM
same,GI50,U-251,1.91 µM
same,TGI,U-251,3.63 µM
same,CC50,U-251; [9],6.92 µM
same,GI50,KM12 [2],3.31 µM
same,TGI,KM12 [2],11.5 µM
same,CC50,KM12 [2]; [9],37.1 µM
same,GI50,NCI-H460,3.09 µM
same,TGI,NCI-H460,9.12 µM
same,CC50,NCI-H460; [9],49 µM
same,GI50,MDA-MB-435 [3],2.14 µM
same,TGI,MDA-MB-435 [3],3.89 µM
same,CC50,MDA-MB-435 [3]; [9],7.24 µM
same,GI50,HOP-62,2.57 µM
same,TGI,HOP-62,7.76 µM
same,CC50,HOP-62; [9],26.9 µM
same,GI50,LOX IMVI,1.7 µM
same,TGI,LOX IMVI,3.16 µM
same,CC50,LOX IMVI; [9],6.03 µM
same,GI50,MOLT-4,2.14 µM
same,TGI,MOLT-4,5.5 µM
same,CC50,MOLT-4; [9],> 100 µM
same,GI50,OVCAR-3,1.78 µM
same,TGI,OVCAR-3,3.24 µM
same,CC50,OVCAR-3; [9],5.89 µM
same,inhibition at 10 µM,MDA-MB-435 [4],> 50%
same,fold change (FC),HCT-116 [5],8.02
same,inhibition at 10 µM,786-0,> 50%
same,fold change (FC),HCT-116 [6],15.9
same,GI50,DU-145,1.86 µM
same,TGI,DU-145,3.24 µM
same,CC50,DU-145; [9],5.75 µM
same,GI50,TK-10,4.68 µM
same,TGI,TK-10,18.6 µM
same,CC50,TK-10; [9],58.9 µM
same,GI50,OVCAR-4,4.68 µM
same,TGI,OVCAR-4,15.5 µM
same,CC50,OVCAR-4; [9],41.7 µM
same,inhibition at 10 µM,NCI-H23,> 50%
same,inhibition at 10 µM,KM12 [7],> 50%
same,GI50,A549,4.47 µM
same,TGI,A549,15.8 µM
same,CC50,A549; [9],40.7 µM
same,GI50,K562,1.2 µM
same,TGI,K562,3.8 µM
same,CC50,K562; [9],> 100 µM
same,Activity,HCT-116 [8],30.1%
same,GI50,UACC-257,2.34 µM
same,TGI,UACC-257,5.62 µM
same,CC50,UACC-257; [9],18.2 µM
same,inhibition at 10 µM,SW-620,> 50%
same,inhibition at 10 µM,NCI-H322M,> 50%
